ChEMBL document CHEMBL5634084, “Design and optimization of selective and potent CDK9 inhibitors with flavonoid scaffold for the treatment of acute myeloid leukemia” (Eur J Med Chem, 2023)

What was measured:
[1] = molecular target: CDK9/cyclin T1 (Homo sapiens) (UniProt O60563+P50750); experiment: Inhibition of CDK9/CyclinT1 (unknown origin) at 100 nM by ADP-Glo assay relative to control; format: protein-complex assay
[2] = molecular target: Cyclin-dependent kinase 7 (Homo sapiens) (UniProt P50613); experiment: Inhibition of wild type full length human CDK7 (1 to 344 esidues) expessed in mammalian expression system at 1 uM by KINOMEscan analysis
HCT-116 = experiment: Antiproliferative activity against human HCT-116 cells assessed as reduction in cell viability measured after 72 hrs; format: functional, cell-based; settings: HCT-116, 72 h
[3] = Toxicity in BALB/c mouse xenografted with human MV4-11 cells assessed as animal's mortality at 7.5 to 15 mg/kg, iv qd; format: organism-based; settings: in vivo, dose 7.5-15 mg/kg
MV4-11 [4] = experiment: Induction of apoptosis in human MV4-11 cells assessed as late apoptotic cells at 0.1 uM incubated for 24 hrs by AnnexinV-FITC/PI staining based flow cytometry (reference value: 5.21%); format: functional
MV4-11 [5] = experiment: Induction of apoptosis in human MV4-11 cells assessed as necrotic cells at 0.5 uM incubated for 24 hrs by AnnexinV-FITC/PI staining based flow cytometry (reference value: 0%); format: functional
MV4-11 [6] = experiment: Induction of apoptosis in human MV4-11 cells assessed as necrotic cells at 2 uM incubated for 24 hrs by AnnexinV-FITC/PI staining based flow cytometry (reference value: 0%); format: functional
MV4-11 [7] = experiment: Induction of apoptosis in human MV4-11 cells assessed as viable cells at 4 uM incubated for 24 hrs by AnnexinV-FITC/PI staining based flow cytometry (reference value: 93.4%); format: functional; settings: read-out: Activity
MV4-11 [8] = experiment: Induction of cell cycle arrest in human MV4-11 cells assessed as accumulation of cells at S phase at 0.1 uM incubated fo 36 hrs by propidium iodide staining based flow cytometry (reference value: 26.5%); format: functional
MV4-11 [9] = experiment: Induction of cell cycle arrest in human MV4-11 cells assessed as accumulation of cells at G2/M phase at 0.4 uM incubated fo 36 hrs by propidium iodide staining based flow cytometry (reference value: 9.5%); format: functional

Sequence of Cyclin-dependent kinase 7 (Homo sapiens) (P50613 whole entry): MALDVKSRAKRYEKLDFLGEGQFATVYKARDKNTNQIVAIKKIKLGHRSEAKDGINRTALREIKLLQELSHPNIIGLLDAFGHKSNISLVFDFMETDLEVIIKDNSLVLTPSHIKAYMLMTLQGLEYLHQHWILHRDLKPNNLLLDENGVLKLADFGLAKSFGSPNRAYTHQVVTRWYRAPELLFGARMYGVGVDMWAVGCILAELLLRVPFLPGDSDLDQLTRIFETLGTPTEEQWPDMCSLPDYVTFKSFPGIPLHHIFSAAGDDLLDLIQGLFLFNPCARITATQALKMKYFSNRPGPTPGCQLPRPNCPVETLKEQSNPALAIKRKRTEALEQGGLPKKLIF

COc1cc(O)c2c(=O)cc(-c3ccc(N4CCN(C)CC4)cc3)oc2c1C1=CCN(C)CC1
inhibition [1]: 98.9% | inhibition [2]: 4.8% | IC50 (HCT-116): 20 nM | Activity [3]: Non-Toxic | Activity (MV4-11 [4]): 6.98% | Activity (MV4-11 [5]): 0% | Activity (MV4-11 [6]): 0.11% | viability at 4 µM (MV4-11 [7]): 7.98% | Activity (MV4-11 [8]): 21% | Activity (MV4-11 [9]): 6%
